Reference: ChEMBL document CHEMBL2095176, “GSK Tuberculosis Screening Data”
In brackets after ≈: the same amount, converted by molar mass.

Test system: Mycobacterium tuberculosis variant bovis BCG
Test: microbe, parasite or virus in culture
Type: functional

| SMILES | MIC90 [µM] |
| --- | --- |
| CCCCS(=O)(=O)Nc1ccc2cnn(C)c2c1 | 0.5 (≈ 0.134 µg/mL) |
| CC(C)Oc1ccc(NCC(=O)Nc2ccc(F)cc2)cc1 | 6.7 (≈ 2.03 µg/mL) |
| Fc1cccc(-c2nc(NCC3COc4ccccc4O3)no2)c1F (stereo unspecified) | 9.2 (≈ 3.18 µg/mL) |
| CSc1ccc(CC(=O)Nc2nc(-c3ccccn3)cs2)cc1 | 9.1 (≈ 3.11 µg/mL) |
| CC(C)(C)c1ccc(-c2nnc(SCC(=O)OC3CCCCC3)o2)cc1 | 8.1 (≈ 3.03 µg/mL) |
| COc1ccc(CCNC(=O)c2nc(-c3ccc(OC)c(OC)c3)no2)cc1OC | 1.5 (≈ 0.62 µg/mL) |
| COc1ccccc1NC(=O)CN(Cc1ccco1)C(=O)c1cccc(NC(=O)c2cccs2)c1 | 0.4 (≈ 0.196 µg/mL) |
| COc1cccc(Nc2cc(C(C)(C)C)nc(-c3ccccn3)n2)c1 | 3.6 (≈ 1.2 µg/mL) |
| c1ccc(-c2nnc(Sc3ccnc(N4CCN(c5ccncc5)CC4)n3)n2CCN2CCOCC2)cc1 | 4.2 (≈ 2.22 µg/mL) |
| O=C(Nc1ccc(C(F)(F)F)cc1)NC1CCCCC1 | 4.3 (≈ 1.23 µg/mL) |
| O=C(O)c1ccccc1COc1ccccc1 | 0.5 (≈ 0.114 µg/mL) |
| O=C(NCCCn1nc(Cl)c(N2CCCNCC2)cc1=O)Nc1ccc(-c2ccccc2)cc1 | 3.7 (≈ 1.78 µg/mL) |
| Cc1cc(C)c2cc(C#N)c(N3CCCNCC3)nc2c1 | 4.3 (≈ 1.21 µg/mL) |
| CN(Cc1ccccc1)c1ccc2nnc(-c3ccccc3)n2n1 | 9.9 (≈ 3.12 µg/mL) |
| COc1cc(CN2CCC3(C=Cc4ccccc43)CC2)cc2c1OCO2 | 3.1 (≈ 1.08 µg/mL) |
| Cc1cc2cc(C)c(NCCN)nc2cc1C | 5.7 (≈ 1.31 µg/mL) |
| CCCc1cc(=O)[nH]c(-n2nc(C)cc2NC(=O)C(CC)c2ccccc2)n1 (stereo unspecified) | 2.7 (≈ 1.02 µg/mL) |
| CS(=O)(=O)N1CCN(c2ccccc2NC(=O)C(Cl)(Cl)Cl)CC1 | 3.9 (≈ 1.56 µg/mL) |
| CC(C)(C)OC(=O)n1cc(CN2CCC3(CC2)OCCc2sccc23)c2ccccc21 | 9.5 (≈ 4.17 µg/mL) |

| SMILES | MIC90 [µM] |
| --- | --- |
| CCn1c(-c2ccccc2)nc2c(-c3ccc(C)cc3)ncc(OCCCN)c21 | 8.8 (≈ 3.4 µg/mL) |
| Cc1ccc(NC(=O)c2cccc(Cl)c2F)cc1-c1ccc(C(N)=O)cc1 | 9.5 (≈ 3.64 µg/mL) |
| CN(C)S(=O)(=O)c1ccc(C(=O)Nc2nnc(-c3ccc(Br)cc3)o2)cc1 | 8 (≈ 3.61 µg/mL) |
| COc1ccc(CN(C)S(=O)(=O)c2ccc(OC)c(-c3nc(C(C)C)no3)c2)cc1 | 7.3 (≈ 3.15 µg/mL) |
| CCCc1ccc(S(=O)(=O)Nc2cc(CN3CCN(CCC)CC3)ccc2C)cc1 | 9.9 (≈ 4.25 µg/mL) |
| CN1CCC(COC(=O)c2cn(C)c3ccc(Cl)cc23)CC1 | 8.7 (≈ 2.79 µg/mL) |
| O=C(Nc1ccccc1-c1nc(C2CCC2)cs1)OCC1CCNCC1.O=C(O)C(F)(F)F | 6.4 |
| Cc1ccc(-c2nnc(NC(=O)c3ccc(F)cc3)o2)cc1C | 2.3 (≈ 0.716 µg/mL) |
| COc1ccc(-c2cc3nccc(C4CCNCC4)n3n2)cc1 | 5.7 (≈ 1.76 µg/mL) |
| CCN(CC)c1ccc(-c2nn3c(-c4n[nH]c5c4CCC5)nnc3s2)cc1 | 7 (≈ 2.66 µg/mL) |
| CC(C)N1CCN(c2nc(CCN3CCN(c4cccc(C(F)(F)F)c4C#N)CC3)cs2)CC1 | 5.5 (≈ 2.71 µg/mL) |
| Cc1ccc(OCC(=O)Nc2cc(C)nn2-c2nc(C)cc(O)n2)cc1 | 3.6 (≈ 1.27 µg/mL) |
| Cc1ccc2nc(N(CCCn3ccnc3)C(=O)C=Cc3cccs3)sc2c1 | 8.2 (≈ 3.35 µg/mL) |
| C[C@@H](NCCc1nc(-c2cn(C)c3ccccc23)no1)C1CCCCC1.Cl | 9.4 |
| C=CCc1cc(C(=O)NC2CCC(C(C)(C)C)CC2)ccc1OC (stereo unspecified) | 8.1 (≈ 2.67 µg/mL) |
| O=C(C=Cc1ccccc1)Nc1nc(-c2ccccn2)cs1 | 3.3 (≈ 1.01 µg/mL) |
| FC(F)(F)c1cc(N2CCCNCC2)c2ccccc2n1 | 4.7 (≈ 1.39 µg/mL) |
| N#Cc1ccc2c(c1)CCN(CCCSc1ccnc3cc(C(F)(F)F)ccc13)CC2 | 3.2 (≈ 1.41 µg/mL) |
| COc1ccc(-c2nc(-c3cccc(NC(=O)Cc4ccc(F)cc4)c3)no2)cc1OC | 2.3 (≈ 0.997 µg/mL) |

| SMILES | MIC90 [µM] |
| --- | --- |
| CCC(Sc1nc2ccccc2o1)C(=O)Nc1nccs1 (stereo unspecified) | 5.7 (≈ 1.82 µg/mL) |
| CS(=O)(=O)c1cccc(C(=O)Nc2nc(-c3ccccn3)cs2)c1 | 3.3 (≈ 1.19 µg/mL) |
| O=C(Nc1nnc(-c2cc(Cl)ccc2Cl)o1)c1ccc(Br)s1 | 8.9 (≈ 3.73 µg/mL) |
| Cc1ccc(C)c2nc(N3CCN(C)CC3)c(C#N)cc12 | 9.4 (≈ 2.64 µg/mL) |
| O=C(Nc1nnc(-c2ccccc2)o1)c1ccc2c(c1)CCCC2 | 4.1 (≈ 1.31 µg/mL) |
| O=C(Nc1cccc2cccnc12)c1cnccn1 | 9.4 (≈ 2.35 µg/mL) |
| CC(C)OC(=O)COc1ccc(-c2cnc(N(C)CCc3ccncc3)nc2)cc1 | 8.5 (≈ 3.46 µg/mL) |
| O=C(/C=C/c1ccc(OC(F)(F)F)cc1)NC1CCN(c2ncccc2C(F)(F)F)CC1 | 3.8 (≈ 1.75 µg/mL) |
| O=C(NNC(=O)c1cccs1)c1ccc(Oc2ccccc2)cc1 | 4.4 (≈ 1.49 µg/mL) |
| O=C(NCc1cc(Cl)cc(Cl)c1)c1c(C(F)(F)F)nc2ccccn12 | 1.3 (≈ 0.505 µg/mL) |
| O=C(Nc1nnc(-c2ccccc2)o1)c1cccc(C(F)(F)F)c1 | 3.6 (≈ 1.2 µg/mL) |
| COc1cc(-c2ccccc2)c(Cl)cc1C(=O)Nc1cccc2c1CCN(C)C2 | 5.9 (≈ 2.4 µg/mL) |
| Cc1csc2nc(-c3ccccn3)nc(Nc3ccncn3)c12.O=C(O)C(F)(F)F | 1.3 |
| CC(=O)N1CCN(Cc2ccc(-c3ccc(NS(=O)(=O)c4ccc(C)cc4)cc3)cc2)CC1 | 9.7 (≈ 4.5 µg/mL) |
| CCOc1ccc(-c2nc(-c3ccc(C(F)(F)F)c(O[C@@H]4CCN(C)C4)c3)no2)cc1 | 3.2 (≈ 1.39 µg/mL) |
| c1ccc(-n2ncc3c(N4CCCNCC4)nc(C4CC4)nc32)cc1 | 4.1 (≈ 1.37 µg/mL) |
| CC[C@H]1CN2CC[C@@H]1C[C@H]2[C@H](O)c1cc(-c2cccnc2)nc2ccc(OC)cc12 | 8.3 (≈ 3.35 µg/mL) |
| CCc1ccc([C@@H]2C[C@H](C(F)(F)F)n3ncc(C(=O)NCc4ccc(OC)cc4)c3N2)cc1 | 2.7 (≈ 1.24 µg/mL) |
